Test results reported in patent US4065570A (priority 1975, dated 1977).
Values after ≈ are worked out from the molar mass of the structure shown. Values joined by “and” are separate entries in the source; they are usually repeats but may differ in a detail not shown here. Identical values can stand only once.

Experiments:
[1] = test system: Polio I; assay: cells; assay type: cell-based; settings: Primates
[2] = test system: Polio I; assay: organism not typed; assay type: cell-based; settings: Vero
[3] = cytotoxicity against Vero cells; assay type: cell-based, African green monkey; settings: african green monkey
Procedure: (§1) In preparing the compounds for testing, they were handled aseptically throughout. The compounds were dissolved in a minimum amount of a suitable solvent, and the final dilutions were made up to the required volume in a complete culture medium in a concentration not exceeding the predetermined maximum non-cytotoxic levels.
(§2) The cell cultures used in all primary in vitro antipicorna virus screening tests were an established cell line of the African green monkey kidney (VERO), a primary cell culture of the Cercopythecus monkey kidney, or human embryonic lung diploid cells WI-38.
(§3) The cytotoxic stuides were performed on each of the compounds to determine the level of response of the cells used to the potentially toxic action of the substances.
(§4) The cells were grown in test tubes in a suitable medium. Immediately before use the initial medium was replaced with the one which contained the test compound in an appropriate concentration. After the virus was added, the infected culture was incubated at 37° C for a number of days and the cytopathic effect of the virus observed and recorded. The results were read every day in all of the tubes and the destruction of cells assessed in precentage of the cell sheet destroyed: 0-25-50-75-100%. As controls, cells with only virus (for cytopathic effect) or with only the compound (for cytotoxic effect) were used as well as the normal, uninfected cells (no cytotoxic -- no cytopathic effects).

[4] = test system: viruses of the Picorna group; assay: antiviral activity (general statements); assay type: cell-based; settings: result in words
Procedure: The in vitro activity of representative compounds of the present invention are set forth below.
as §1, §2, §4
Net difference in cytopathic effect between treated and control tubes expressed in percentage give the extent of the inhibitory activity of the substance.

[5] = test system: Vero cells; assay: cytotoxicity against Vero cells; assay type: cell-based, African green monkey; settings: Vero cells; for Cytotoxicity CTD50: 50% inhibition of the cell growth; for Cytotoxicity CTD0: maximal non-toxic concentration
Procedure: as §1, §2, §3, §4

With COc1ccc(C=C2NC(=O)NC2=O)cc1OC [5-(3',4'-DIMETHOXYBENZAL) HYDANTOIN, 5-(3',4'-Dimethoxybenzal) hydantoin] as the compound, how does the inhibition at 50 µg/mL [1] read?
Its inhibition at 50 µg/mL is 34%.

What about the inhibition at 100 µg/mL [1] of the same compound?
Its inhibition at 100 µg/mL is 45%.

With COc1ccc(C=C2C(=O)N(C(C)=O)C(=O)N2C(C)=O)cc1OC [Example 32, N,N-diacetylated 5-(3',4'-dimethoxybenzal) hydantoin] as the compound, how does the inhibition at 1 µg/mL ([2]; 316 TCID50, 1 μg/ml) read?
The inhibition at 1 µg/mL was 100%.

And the inhibition at 5 µg/mL ([2]; 316 TCID50, 5 μg/ml)?
Its inhibition at 5 µg/mL is 100%.

And the inhibition at 10 µg/mL ([2]; 316 TCID50, 10 μg/ml)?
Its inhibition at 10 µg/mL is 100%.

What about the inhibition at 50 µg/mL ([2]; 316 TCID50, 50 μg/ml) of the same compound?
The inhibition at 50 µg/mL was 100%.

And the CC50 ([3]; vero cells, read-out: Cytotoxicity CTD50)?
Its CC50 is 33 µg/mL (≈ 99.3 µM).

And the MNTC ([3]; Vero cells, maximal non-toxic concentration, read-out: Cytotoxicity CTD0)?
Its MNTC is 10 µg/mL.

And the “anti-viral activity in tissue culture tests” value [4]?
Its value is “much greater anti-viral activity than the former”.

Which results are given for “Acetylated 5-(2',4',5'-trimethoxybenzal) hydantoin [Example 22]”?
% Inhibition ([2]; 10 TCID50, 0.01 μg/ml): 4%; % Inhibition ([2]; 10 TCID50, 0.03 μg/ml): 8%; % Inhibition ([2]; 10 TCID50, 0.07 μg/ml): 27%; % Inhibition ([2]; 10 TCID50, 0.1 μg/ml): 54%; % Inhibition ([2]; 10 TCID50, 0.3 μg/ml): 98%; % Inhibition ([2]; 10 TCID50, 0.7 μg/ml): 98%; % Inhibition ([2]; 10 TCID50, 1 μg/ml): 100%; % Inhibition ([2]; 100 TCID50, 0.01 μg/ml): 0%; % Inhibition ([2]; 100 TCID50, 0.03 μg/ml): 0%; % Inhibition ([2]; 100 TCID50, 0.07 μg/ml): 25%; % Inhibition ([2]; 100 TCID50, 0.1 μg/ml): 50%; % Inhibition ([2]; 100 TCID50, 0.3 μg/ml): 90%; % Inhibition ([2]; 100 TCID50, 0.7 μg/ml): 93%; % Inhibition ([2]; 100 TCID50, 1 μg/ml): 100%; Cytotoxicity CTD50 [5]: > 100 µg/mL; Cytotoxicity CTD0 [5]: 1 µg/mL

For “Acetylated 5-(3',4',5'-trimethoxybenzal) hydantoin [Example 23]”, which “% Inhibition” value ([2]; 316 TCID50, 0.1 μg/ml) is on record?
Its value is 0%.

And the “% Inhibition” value ([2]; 316 TCID50, 0.3 μg/ml)?
Its value is 14%.

What about the “% Inhibition” value ([2]; 316 TCID50, 0.7 μg/ml) of the same compound?
The value was 36%.

And the “% Inhibition” value ([2]; 316 TCID50, 1 μg/ml)?
Its value is 46%.

And the “% Inhibition” value ([2]; 316 TCID50, 3.3 μg/ml)?
The value was 56%.

And the “% Inhibition” value ([2]; 316 TCID50, 6.7 μg/ml)?
Its value is 72%.

And the “% Inhibition” value ([2]; 316 TCID50, 10 μg/ml)?
Its value is 96%.

And the “Cytotoxicity CTD50” value [5]?
Its value is 50 µg/mL.

What about the “Cytotoxicity CTD0” value [5] of the same compound?
The value was 10 µg/mL.

With “Acetylated 5-(3',4'-dimethoxybenzal) hydantoin” as the compound, how does the “degree of antiviral activity” value ([4]; listed as Example 30) read?
Its value is “highly effective against Picorna group of viruses”.

And the “degree of antiviral activity” value ([4]; listed as acetylated 5-(3',4'-dimethoxybenzal) hydantoin (anhydrous sodium acetate and ace))?
The value was “exceptionally good antiviral activity”.

Which “% Inhibition” value ([2]; 10 TCID50, 0.5 μg/ml) does the source give for “Acetylated 5-(3',5'-dimethoxybenzal) hydantoin [Example 21]” here?
Its value is 15%.

And the “% Inhibition” value ([2]; 10 TCID50, 1 μg/ml)?
The value was 50%.

What about the “% Inhibition” value ([2]; 10 TCID50, 5 μg/ml) of the same compound?
Its value is 100%.

What about the “% Inhibition” value ([2]; 10 TCID50, 10 μg/ml) of the same compound?
Its value is 100%.

And the “% Inhibition” value ([2]; 100 TCID50, 0.5 μg/ml)?
The value was 0%.

And the “% Inhibition” value ([2]; 100 TCID50, 1 μg/ml)?
Its value is 32%.

What about the “% Inhibition” value ([2]; 100 TCID50, 5 μg/ml) of the same compound?
The value was 100%.

And the “% Inhibition” value ([2]; 100 TCID50, 10 μg/ml)?
The value was 100%.

What about the “Cytotoxicity CTD50” value [5] of the same compound?
The value was > 100 µg/mL and 100 µg/mL.

And the “Cytotoxicity CTD0” value [5]?
Its value is 100 µg/mL.

For “Acetylated 5-(3'-methoxy-4'-acetoxybenzal) hydantoin [Example 15]”, which “Cytotoxicity CTD50” value [5] is on record?
The value was greater than 100 µg/mL.

And the “Cytotoxicity CTD0” value [5]?
The value was greater than 10 µg/mL.

For “Acetylated 5-benzalhydantoin [Example 16]”, which “Cytotoxicity CTD50” value [5] is on record?
The value was 83 µg/mL.

And the “Cytotoxicity CTD0” value [5]?
Its value is 10 µg/mL.

With “N-monoacetylated 5-(3',4'-dimethoxybenzal) hydantoin [Example 31]” as the compound, how does the “% Inhibition” value ([2]; 316 TCID50, 1 μg/ml) read?
The value was 0%.

What about the “% Inhibition” value ([2]; 316 TCID50, 5 μg/ml) of the same compound?
The value was 0%.

What about the “% Inhibition” value ([2]; 316 TCID50, 10 μg/ml) of the same compound?
Its value is 7%.

What about the “% Inhibition” value ([2]; 316 TCID50, 50 μg/ml) of the same compound?
The value was 84%.

And the “Cytotoxicity CTD50” value [5]?
Its value is 100 µg/mL.

And the “Cytotoxicity CTD0” value [5]?
The value was 10 µg/mL.

And the “anti-viral activity in tissue culture tests” value [4]?
The value was “more active than the unacetylated compound”.
